Laboratory results: patent publication US6906078B2, “Method of using (H+/K+) ATPase inhibitors as antiviral agents” (Pharmacia Corporation, priority 1994, dated 2005)
Like-named read-outs stand apart in the source and are kept apart here.

How the values were obtained:
gastric acid secretion [1] = assay: Inhibition of gastric acid secretion in gastric fistula beagle dogs (histamine-stimulated); type: in vivo; conditions: Canis lupus familiaris, 4 h, histamine-stimulated, four-hour period, read-out: Gastric-Fistula Beagle % Inhibition (3 mg/kg dose)
Outline: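 Conscious, 18 h-fasted female beagles with gastric (or duodenal) cannulas received compound i.v., i.g. or i.d. after a 30-min basal period, then 4 h i.v. histamine dihydrochloride at 15 mcg/kg/h. Gastric volume, acid concentration and total acid output collected every 30 min; percent inhibition versus controls, ED50 from dose-response curves.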

gastric acid secretion [2] = assay: Inhibition of gastric acid secretion in meal-stimulated Pavlov pouch dog; type: in vivo, beagle dogs; conditions: 3 mg/kg, four-hour period
Experimental: Adult female beagle dogs weighing 6 to 10 kilograms were obtained from Laboratory Research Enterprises (Kalamazoo, Mich.) or from Hazelton Research Animals (Cumberland, Va.). Surgical implantation of a Thomas-type gastric cannula into an innervated Pavlov pouch of each dog was performed by the method reported by L. Burrows et al., J. Surgical Res., 4, 147 (1964). After recovery from surgery, the dogs were trained to stand quietly, fully conscious, in Pavlov-type dog restraining slings. All dogs were deprived of food, but not water, for 24 hours prior to each assay. Basal acid secretion was measured by collecting from the cannulas for 30 minutes before dosing with a test compound. Solutions of the test compounds in iso-osmotic phosphate buffer (pH 7.4) were given either intravenously or directly into the Pavlov pouch. After 30 minutes the pouch was drained. The dogs were then fed 320 grams of dog food and gastric acid secretions were collected each half hour for four hours. Controls were determined in the same way except that only food (i.e., no test compound) was administered.
Data were analyzed for three different variables: volume of gastric juice, acid concentration, and total acid output. Percent inhibition for the four-hour experimental period was determined for each parameter by comparison with 3 to 4 controls. Estimates of ED50 were determined from dose response curves.

HCMV (strain AD169) = assay: Antiviral assay: HCMV antigen ELISA in infected human foreskin fibroblasts (MRHF); type: cell-based, human cytomegalovirus; conditions: Human betaherpesvirus 5, Fibroblast; MRHF cells, HCMV AD169, moi 0.2, 96 hours; read-out: HCMV cell EC50
Excerpt: These complimentary assays tested the ability of a compound to inhibit the production of new virus and the toxicity of the compound to the host cells. It was important that both assays be performed simultaneously in order to compare the results directly since, toxicity may indirectly reduce viral yield.
Viral yield was estimated by measuring the amount of a viral antigen produced 4 days post infection with a monoclonal antibody to an abundant “immediate early” viral protein. An enzyme-linked (horseradish peroxidase) secondary antibody specific to the primary (mouse) antibody was used to measure the amount of viral antigen. Test compounds were diluted to 2-times the desired final concentration in DMEM+5% FBS. One hundred microliters of this solution was placed in each well of a 96-well plate. This was performed once for the antiviral 96-well plate and again for a cytotoxicity plate. Two controls were also included for both plates; a no drug control and a ganciclovir control. Ganciclovir was included because it has known antiviral activity for HCMV. All cells were prepared by harvesting human foreskin fibroblasts, MRHF, with trypsin and re-suspending at a concentration of 5×10^5 cells per ml in DMEM. Infected cells were prepared by infecting these with HCMV (strain AD169) at a multiplicity of infection=0.2. One hundred microliters of uninfected cells (5×10^4 cells) were added to the appropriate wells of the cytotoxicity plate. In a similar manner 100 μl of infected cells (5×10^4 cells) were added to the appropriate wells of the antiviral plate. Additionally, uninfected cells not treated with test compound were included as controls on the antiviral plate. Plates were incubated for 96 hours at 37° C. in 5% CO2 atmosphere and processed to measure the amount of viral antigen and toxicity.
The following was performed on the antiviral plate only. Media was removed and cells were fixed with 1:1 acetone:methanol for 15 minutes at −20° C. Fixative was removed and cells were washed once with PBS containing 0.05% Tween20. In order to block nonspecific binding of antibodies each well was incubated with PBS containing 3% (w/v) bovine serum albumin (BSA) for 1 hour at 22° C. The blocking solution was removed and the cells were washed once with PBS containing 0.05% Tween20 before incubating with 1:100 dilution of primary antibody in PBS containing 3% BSA for 2 hours at 22° C. The primary antibody was a monoclonal antibody (mouse source) specific to the immediate early nuclear antigen of HCMV and was commercially available (Dupont). The 10 antibody solution was removed and the plate was rinsed 5 times with PBS containing 1% (v/v) Triton X-100 (PBST) before incubating with secondary antibody diluted 1:1000 in PBS containing 3% BSA for 2 hours at 22° C. The secondary antibody (goat source) recognized the murine-specific determinants of the 1° antibody and was covalently linked to horseradish peroxidase (Sigma). The plate was rinsed 5 times with PBST and once with deionized water before adding 100 μl TMB substrate solution and incubating 30 minutes at 22° C. The reaction was stopped by adding 100 μL of phosphoric acid and the OD at 450 nm recorded. TMB (3,3′,5,5′ tetramethylbenzidine) was the substrate for the horseradish peroxidase linked to the 2° antibody. […] Antiviral activity was calculated by comparing the amount of viral antigen produced in drug treated wells with that produced in wells absent of drug.

Row | Compound | melting point [°C] | inhibition in vivo at 3 mg/kg (gastric acid secretion [1]; iv, 3 mg/kg i.v.) [%] | Pavlov-Pouch Dog % Inhibition (dose (mg/kg)) (gastric acid secretion [2]) | EC50 (HCMV (strain AD169)) [µM] | inhibition in vivo at 3 mg/kg (gastric acid secretion [1]; intraduodenal, 3 mg/kg i.d.) [%]
1 | COc1ccc(N)c(C[S+]([O-])c2nc3ccccc3[nH]2)c1 (stereo not shown) [Example 20, 2-[(1H-Benzimidazol-2-ylsulfinyl)methyl]-4-methoxybenzenamine] | 152 to 153 | 37 | 22 (3 mg/kg) % | – | –
2 | Cc1ccc(C[S+]([O-])c2nc3ccccc3[nH]2)c(N)c1C (stereo not shown) [Example 53, 2-[(1H-Benzimidazol-2-ylsulfinyl)methyl]-5,6-dimethylbenzenamine ¼ hydrate] | – | – | – | 13 | 79
3 | COc1ccc2[nH]c([S+]([O-])Cc3c(N)cc(C)c(OC)c3C)nc2c1 (stereo not shown) [Example 78, 2-[[(5-Methoxy-1H-benzimidazol-2-yl)sulfinyl]methyl]-4-methoxy-3,5-dimethylbenzenamine] | 149 to 155 | – | – | 22 | 31
4 | COc1ccc2[nH]c([S+]([O-])Cc3ncc(C)c(OC)c3C)nc2c1 (stereo not shown) [omeprazole, reference compound] | – | – | – | 93 | –

Second part, led by results:

Row | melting point [°C] | Compound | inhibition in vivo at 3 mg/kg (gastric acid secretion [1]; iv, 3 mg/kg i.v.) [%] | Pavlov-Pouch Dog % Inhibition (dose (mg/kg)) (gastric acid secretion [2]) | EC50 (HCMV (strain AD169)) [µM] | inhibition in vivo at 3 mg/kg (gastric acid secretion [1]; intraduodenal, 3 mg/kg i.d.) [%]
5 | 170 to 171 | Cc1ccc2[nH]c([S+]([O-])Cc3ccccc3N)nc2c1 (stereo not shown) [Example 41, 2-[[(5-Methyl-1H-benzimidazol-2-yl)sulfinyl]-methyl]benzenamine] | – | – | 59 | –
6 | 165 to 166 | Nc1ccccc1C[S+]([O-])c1nc2cc(Cl)ccc2[nH]1 (stereo not shown) [Example 43, 2-[[(5-Chloro-1H-benzimidazol-2-yl)sulfinyl]-methyl]benzenamine] | – | – | 23 | –
